# Measurements taken from patent US20260306460A1, “COMPOSITION FOR REMOVING AND INHIBITING SENESCENT CELLS, AND USES THEREOF” (LIFECEUTIX CO., LTD., priority 2023, published 2026).
# Legend:
# Type in all cases: in vivo, mouse
# [1] = test system: transplanted liver of aged mice; assay: Efficiency of liver transplantation from aged mice into young mice
# Method: In addition, the efficiency of liver transplantation was evaluated. Livers extracted from aged mice of Example 21-1, untreated and treated with LX-403, were transplanted into young 3-month-old mice, and the efficiency of liver transplantation was evaluated 3 days later through analysis of aging and liver damage markers. As a result, when treated with LX-403, the amount of p16, an aging-related marker of the liver after transplantation, and serum AST and ALT, liver damage markers, decreased compared to the control group. […] This improvement in transplantation efficiency was also confirmed when the livers extracted from aged mice were transplanted after removing senescent cells under ex vivo conditions, such as by culturing them in an LX-403-containing medium.
# [2] = test system: transplanted kidney of aged mice; assay: Efficiency of kidney transplantation from aged mice into young mice
# Method: Furthermore, the efficiency of kidney transplantation following the removal of senescent cells from the kidney was evaluated. Kidneys extracted from aged mice of Example 21-1, untreated and treated with LX-403, were transplanted into 3-month-old young mice. Three days later, the efficiency of kidney transplantation was assessed through analysis of markers of aging and kidney damage. […] This improvement in transplantation efficiency was also observed when kidneys extracted from aged mice were transplanted after removing senescent cells under ex vivo conditions, such as by culturing them in an LX-403-containing medium.
# [3] = test system: mice with peritoneal fibrosis induced by chlorhexidine gluconate; assay: Chlorhexidine gluconate (CHG) peritoneal fibrosis in mice, Example 20
# Description: The anti-fibrosis activity of LX-5701 was confirmed using the same method as in Example 6-2 of WO2023-085787 A1. The thickness of the peritoneal mesothelial cell layer was quantitatively evaluated in mice with peritoneal fibrosis induced by chlorhexidine gluconate (CHG) under untreated and LX-5701-treated conditions.
# [4] = test system: doxorubicin-induced aged C57BL6J mice; assay: Lipofuscin staining in muscle of doxorubicin-aged mice, Example 22-4, Table 33; details: staining area, untreated aged = 100
# Method: (§1) Eight-week-old male C57BL6J mice (KRIBB Laboratory Animal Resource Center) were acclimated to the experimental environment for one week. Afterwards, the anticancer agent doxorubicin was administered intraperitoneally at a concentration of 10 mg/kg, inducing aging for more than 10 days. The aging-induced mice were randomly assigned to experimental and control groups. LX-403 was mixed with a 10% ethanol solution of PEG400 and administered orally at a concentration of 25 mg/kg or intradermally at a concentration of 1 μM for 21 days. LX-1801 was mixed in distilled water with 4% DMSO, 30% PEG300, and 5% Tween80 and administered intradermally at a concentration of 0.4 μM daily for 21 days. LX-2001 was mixed in PBS and administered intradermally at a concentration of 2 μM daily for 21 days. LX-2002 was mixed in distilled water with 4% DMSO, 30% PEG300, and 5% Tween80 and administered intradermally at a concentration of 2 μM daily for 21 days. […] LX-2005 was mixed in distilled water with 4% DMSO, 30% PEG300, and 5% Tween80 and administered intradermally at a concentration of 90 μM daily for 21 days. LX-2007 was mixed in distilled water with 4% DMSO, 30% PEG300, and 5% Tween80 and administered intradermally at a concentration of 90 μM daily for 21 days. […]
# [5] = test system: obesity-induced aged C57BL6J mice; assay: Serum IL6 and activin A (ELISA) in obesity-aged mice, Example 23-3, Table 43; details: 360 mg/kg oral daily for 21 days
# Method: 15-week-old male C57BL6J mice (The Jackson Laboratory) were induced to obesity by a high-fat diet using the same method as in Example 9-1 WO2023-085787 A1. After acclimation to the experimental environment for one week, the mice were randomly assigned to experimental and control groups. […] LX-3002 was mixed in distilled water with 4% DMSO, 30% PEG300, and 5% Tween80 and administered orally at a concentration of 10 mg/kg daily for 21 days. LX-5701 was mixed in PBS and administered orally at a concentration of 360 mg/kg daily for 21 days. LX-6807 was mixed in saline and administered intraperitoneally at a concentration of 1 mg/kg daily for 21 days. The control group received only the solution in the same volume. After the end of drug administration, the methods described in each example below were performed.
# The levels of IL6 and activin A, senescence-associated secretory factors (SASP), were measured in serum collected from mice using the same method as in Example 7-5 of WO2023-085787 A1 using an enzyme-linked immunosorbent assay (ELISA Kit, R&D Systems).
# [6] = test system: doxorubicin-induced aged C57BL6J mice; assay: p16 and p21 mRNA in doxorubicin-aged mice, Example 22-2, Table 31; details: untreated aged = 100%
# Method: Eight-week-old male C57BL6J mice (KRIBB Laboratory Animal Resource Center) were acclimated to the experimental environment for one week. Afterwards, the anticancer agent doxorubicin was administered intraperitoneally at a concentration of 10 mg/kg, inducing aging for more than 10 days. The aging-induced mice were randomly assigned to experimental and control groups. LX-403 was mixed with a 10% ethanol solution of PEG400 and administered orally at a concentration of 25 mg/kg or intradermally at a concentration of 1 μM for 21 days. LX-1801 was mixed in distilled water with 4% DMSO, 30% PEG300, and 5% Tween80 and administered intradermally at a concentration of 0.4 μM daily for 21 days. LX-2001 was mixed in PBS and administered intradermally at a concentration of 2 μM daily for 21 days. LX-2002 was mixed in distilled water with 4% DMSO, 30% PEG300, and 5% Tween80 and administered intradermally at a concentration of 2 μM daily for 21 days. […] LX-2005 was mixed in distilled water with 4% DMSO, 30% PEG300, and 5% Tween80 and administered intradermally at a concentration of 90 μM daily for 21 days. LX-2007 was mixed in distilled water with 4% DMSO, 30% PEG300, and 5% Tween80 and administered intradermally at a concentration of 90 μM daily for 21 days. […] LX-3002 was mixed in distilled water with 4% DMSO, 30% PEG300, and 5% Tween80 and administered orally at a concentration of 10 mg/kg daily for 21 days. […] LX-5411 was mixed in 5% phosphate-buffered saline (PBS) and administered orally at a concentration of 10 mg/kg daily for 21 days or intradermally at a concentration of 3 μM. LX-5701 was mixed in PBS and administered orally at a concentration of 360 mg/kg daily for 21 days. LX-6807 was mixed in saline and administered intraperitoneally at a concentration of 1 mg/kg daily for 21 days. The control group received only the solution in the same volume. After the end of drug administration, the methods described in each example below were performed.
# Mice were sacrificed using the same method as in Example 7-2 of WO2023-085787 A1. RNA was extracted from organ tissues of each site, and cDNA synthesized was used for qRT-PCR and analysis. […] The mRNA amounts of p16 and p21 after aging induction were calculated as 100% and compared with the mRNA amounts of p16 and p21 after LX-5701 treatment.
# [7] = test system: doxorubicin-induced aged C57BL6J mice; assay: Serum IL6 (ELISA) in doxorubicin-aged mice, Example 22-5, Table 34; details: untreated aged = 100
# Method: as §1, with “days.” for “days. LX-2007 was mixed in distilled water with 4% DMSO, 30% PEG300, and 5% Tween80 and administered intradermally at a concentration of 90 μM daily for 21 days.”
# The amount of IL6, a senescence-associated secretory factor (SASP), was measured in serum collected from mice using the same method as in Example 7-5 of WO2023-085787 A1 using an enzyme-linked immunosorbent assay (ELISA Kit, R&D Systems).
SMILES,"p16 of transplanted liver, serum AST and ALT ([1]; 3 days after transplantation)","efficiency of liver transplantation ([1]; mouse, in vivo)","p16 of transplanted kidney, serum urea and creatinine ([2]; 3 days after transplantation)","efficiency of kidney transplantation ([2]; mouse, in vivo)",Submesothelial Thickness [3],"Lipofuscin (%), Muscle [4]",Activin A ([5]; untreated 100 (±7.5)),IL6 ([5]; untreated 100 (±11.6)),"p16 mRNA (%), Kidney ([6]; Kidney)","p21 mRNA (%), Kidney ([6]; Kidney)","p16 mRNA (%), Liver ([6]; Liver)","p21 mRNA (%), Liver ([6]; Liver)","p16 mRNA (%), eWAT ([6]; eWAT)","p21 mRNA (%), eWAT ([6]; eWAT)",IL6 (%) [7]
O=C(C(C[N+](=O)[O-])=NO)N1CCN(C(c2ccc(Cl)cc2)c2ccc(Cl)cc2)CC1 [LX-403],decreased,improves the efficiency of long-term liver transplantation,reduced,improves the efficiency of kidney transplantation,–,–,–,–,–,–,–,–,–,–,–
O=C1C2CCN(CC2)C1CNC(=O)C(F)(F)F (stereo not drawn) [LX-5701],–,–,–,–,41.8 (±7.5) μm,64 (±13.1) %,61.7 (±14.0) %,53.9 (±15.4) %,78 (±7.7) %,75 (±5.8) %,62 (±7.5) %,64 (±11.7) %,55 (±11.5) %,71 (±8.8) %,57 (±21.5) %
